Measurements: article PMC4774911, “Biochemical Screening of Five Protein Kinases from Plasmodium falciparum against 14,000 Cell-Active Compounds” (PLoS ONE, 2016)
pIC50: −log10 of the molar value. “And” between values parts separate entries of the source, which are not always exact repeats. Identical values can stand only once.

Assays:
Assay in all cases: biochemical
[1] = biological target: IRAK1 (Homo sapiens, UniProt P51617)
[2] = biological target: PRKAA1 (Homo sapiens, UniProt Q13131)
[3] = biological target: T1, STK4 (Homo sapiens, UniProt Q13043)
T1 sequence (Q13043 1-487): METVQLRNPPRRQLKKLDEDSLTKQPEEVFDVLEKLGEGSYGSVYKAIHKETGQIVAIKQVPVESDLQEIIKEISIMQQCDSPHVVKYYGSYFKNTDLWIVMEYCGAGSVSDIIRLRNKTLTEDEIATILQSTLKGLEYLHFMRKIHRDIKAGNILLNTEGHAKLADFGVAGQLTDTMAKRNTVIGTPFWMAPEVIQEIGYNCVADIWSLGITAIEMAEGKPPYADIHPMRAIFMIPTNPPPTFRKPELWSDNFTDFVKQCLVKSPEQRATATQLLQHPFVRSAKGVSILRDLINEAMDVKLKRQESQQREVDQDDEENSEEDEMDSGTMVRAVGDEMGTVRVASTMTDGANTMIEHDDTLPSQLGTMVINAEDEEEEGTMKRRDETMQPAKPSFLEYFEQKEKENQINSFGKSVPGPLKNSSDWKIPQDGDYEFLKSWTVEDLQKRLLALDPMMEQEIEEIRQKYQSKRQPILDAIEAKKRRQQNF

[4] = biological target: MAST3 (Homo sapiens, UniProt O60307)
[5] = biological target: MAP3K11 (Homo sapiens, UniProt Q16584)
[6] = biological target: ACVR2B (Homo sapiens, UniProt Q13705)
[7] = biological target: STK17B (Homo sapiens, UniProt O94768)
[8] = biological target: MAPK6 (Homo sapiens, UniProt Q16659)
[9] = biological target: T2, MARK4 (Homo sapiens, UniProt Q96L34)
T2 sequence (Q96L34 1-752): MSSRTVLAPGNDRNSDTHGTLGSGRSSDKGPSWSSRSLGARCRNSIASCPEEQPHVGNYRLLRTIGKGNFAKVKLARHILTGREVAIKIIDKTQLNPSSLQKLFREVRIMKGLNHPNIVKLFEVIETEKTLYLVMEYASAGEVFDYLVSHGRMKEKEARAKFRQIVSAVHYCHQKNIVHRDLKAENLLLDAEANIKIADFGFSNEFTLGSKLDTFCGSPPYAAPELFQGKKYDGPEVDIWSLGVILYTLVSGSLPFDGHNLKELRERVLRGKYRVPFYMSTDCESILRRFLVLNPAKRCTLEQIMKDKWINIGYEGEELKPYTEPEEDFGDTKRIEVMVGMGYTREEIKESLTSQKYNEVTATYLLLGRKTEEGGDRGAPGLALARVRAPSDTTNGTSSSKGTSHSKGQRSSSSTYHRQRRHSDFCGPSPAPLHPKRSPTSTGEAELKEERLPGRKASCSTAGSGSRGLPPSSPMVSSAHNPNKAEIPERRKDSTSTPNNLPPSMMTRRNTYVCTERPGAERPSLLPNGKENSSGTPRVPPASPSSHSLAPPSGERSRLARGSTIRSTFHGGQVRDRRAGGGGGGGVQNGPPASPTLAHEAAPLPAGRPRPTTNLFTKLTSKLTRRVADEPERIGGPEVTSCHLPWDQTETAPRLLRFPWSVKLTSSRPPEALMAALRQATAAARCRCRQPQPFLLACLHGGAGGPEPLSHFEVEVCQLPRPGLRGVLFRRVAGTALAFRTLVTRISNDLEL

[10] = biological target: DSTYK (Homo sapiens, UniProt Q6XUX3)
[11] = biological target: MAP3K5 (Homo sapiens, UniProt Q99683)
[12] = biological target: T3, MAPKAPK5 (Homo sapiens, UniProt Q8IW41)
T3 sequence (Q8IW41 1-473): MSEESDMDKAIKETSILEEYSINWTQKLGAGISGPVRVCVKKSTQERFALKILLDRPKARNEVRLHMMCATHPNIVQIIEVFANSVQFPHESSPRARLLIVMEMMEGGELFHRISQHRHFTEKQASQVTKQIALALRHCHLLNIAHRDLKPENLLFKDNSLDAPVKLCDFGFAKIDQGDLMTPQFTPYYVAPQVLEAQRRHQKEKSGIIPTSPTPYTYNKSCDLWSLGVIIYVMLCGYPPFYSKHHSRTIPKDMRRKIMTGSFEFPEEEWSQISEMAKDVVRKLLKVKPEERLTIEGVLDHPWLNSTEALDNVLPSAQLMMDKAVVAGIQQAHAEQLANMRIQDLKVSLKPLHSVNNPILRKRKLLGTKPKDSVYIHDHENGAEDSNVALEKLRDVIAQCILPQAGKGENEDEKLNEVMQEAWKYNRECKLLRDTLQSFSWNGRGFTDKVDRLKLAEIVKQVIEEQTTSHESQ

[13] = biological target: BMPR1A (Homo sapiens, UniProt P36894)
[14] = biological target: MKNK1 (Homo sapiens, UniProt Q9BUB5)
MKNK1, sequence (Q9BUB5 whole entry): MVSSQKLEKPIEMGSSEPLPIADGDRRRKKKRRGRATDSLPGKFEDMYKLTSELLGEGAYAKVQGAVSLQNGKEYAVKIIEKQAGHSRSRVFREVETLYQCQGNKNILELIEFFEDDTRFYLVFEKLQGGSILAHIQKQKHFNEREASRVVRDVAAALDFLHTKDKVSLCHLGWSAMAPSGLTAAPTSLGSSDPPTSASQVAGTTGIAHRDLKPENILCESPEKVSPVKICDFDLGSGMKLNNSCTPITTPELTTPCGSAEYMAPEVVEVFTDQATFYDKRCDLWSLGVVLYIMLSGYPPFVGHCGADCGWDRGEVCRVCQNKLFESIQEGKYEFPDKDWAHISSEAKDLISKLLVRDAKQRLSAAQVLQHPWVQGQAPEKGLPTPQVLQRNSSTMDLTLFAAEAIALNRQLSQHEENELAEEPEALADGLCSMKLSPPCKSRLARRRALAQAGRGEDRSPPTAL

IRAK1, sequence (P51617 whole entry): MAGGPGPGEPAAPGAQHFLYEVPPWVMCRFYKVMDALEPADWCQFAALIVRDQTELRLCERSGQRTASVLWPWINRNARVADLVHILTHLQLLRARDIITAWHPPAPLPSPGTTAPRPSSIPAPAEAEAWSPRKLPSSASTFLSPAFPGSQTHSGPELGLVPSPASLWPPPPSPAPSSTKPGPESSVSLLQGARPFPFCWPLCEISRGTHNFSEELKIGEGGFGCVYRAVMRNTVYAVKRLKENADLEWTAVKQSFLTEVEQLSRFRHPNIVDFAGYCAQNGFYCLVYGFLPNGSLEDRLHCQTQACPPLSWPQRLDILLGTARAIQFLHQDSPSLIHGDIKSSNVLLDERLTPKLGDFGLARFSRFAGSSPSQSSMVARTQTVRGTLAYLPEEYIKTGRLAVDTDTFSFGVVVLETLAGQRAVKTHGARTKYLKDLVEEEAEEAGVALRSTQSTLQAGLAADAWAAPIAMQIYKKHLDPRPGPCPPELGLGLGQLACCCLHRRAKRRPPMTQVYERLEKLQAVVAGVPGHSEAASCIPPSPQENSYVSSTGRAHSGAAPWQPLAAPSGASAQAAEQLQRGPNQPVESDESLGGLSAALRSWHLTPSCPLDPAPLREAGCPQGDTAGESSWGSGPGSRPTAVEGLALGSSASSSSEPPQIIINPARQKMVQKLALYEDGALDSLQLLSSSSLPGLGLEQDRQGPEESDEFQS
PRKAA1, sequence (Q13131 whole entry): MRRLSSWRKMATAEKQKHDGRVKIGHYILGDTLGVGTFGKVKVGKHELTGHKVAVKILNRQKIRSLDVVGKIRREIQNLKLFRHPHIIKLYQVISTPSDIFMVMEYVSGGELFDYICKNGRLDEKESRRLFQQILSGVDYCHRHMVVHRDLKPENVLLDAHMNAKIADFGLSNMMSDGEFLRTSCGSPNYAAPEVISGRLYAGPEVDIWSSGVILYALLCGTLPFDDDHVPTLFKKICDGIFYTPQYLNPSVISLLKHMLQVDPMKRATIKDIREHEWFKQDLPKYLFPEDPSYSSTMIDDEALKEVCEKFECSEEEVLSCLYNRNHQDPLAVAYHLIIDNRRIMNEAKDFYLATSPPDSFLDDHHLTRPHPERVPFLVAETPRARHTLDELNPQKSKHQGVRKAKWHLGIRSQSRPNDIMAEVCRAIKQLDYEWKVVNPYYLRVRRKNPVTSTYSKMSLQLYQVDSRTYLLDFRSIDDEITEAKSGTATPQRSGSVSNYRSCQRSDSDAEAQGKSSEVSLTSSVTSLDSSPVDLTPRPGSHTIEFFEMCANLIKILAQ
MAP3K11, sequence (Q16584 whole entry): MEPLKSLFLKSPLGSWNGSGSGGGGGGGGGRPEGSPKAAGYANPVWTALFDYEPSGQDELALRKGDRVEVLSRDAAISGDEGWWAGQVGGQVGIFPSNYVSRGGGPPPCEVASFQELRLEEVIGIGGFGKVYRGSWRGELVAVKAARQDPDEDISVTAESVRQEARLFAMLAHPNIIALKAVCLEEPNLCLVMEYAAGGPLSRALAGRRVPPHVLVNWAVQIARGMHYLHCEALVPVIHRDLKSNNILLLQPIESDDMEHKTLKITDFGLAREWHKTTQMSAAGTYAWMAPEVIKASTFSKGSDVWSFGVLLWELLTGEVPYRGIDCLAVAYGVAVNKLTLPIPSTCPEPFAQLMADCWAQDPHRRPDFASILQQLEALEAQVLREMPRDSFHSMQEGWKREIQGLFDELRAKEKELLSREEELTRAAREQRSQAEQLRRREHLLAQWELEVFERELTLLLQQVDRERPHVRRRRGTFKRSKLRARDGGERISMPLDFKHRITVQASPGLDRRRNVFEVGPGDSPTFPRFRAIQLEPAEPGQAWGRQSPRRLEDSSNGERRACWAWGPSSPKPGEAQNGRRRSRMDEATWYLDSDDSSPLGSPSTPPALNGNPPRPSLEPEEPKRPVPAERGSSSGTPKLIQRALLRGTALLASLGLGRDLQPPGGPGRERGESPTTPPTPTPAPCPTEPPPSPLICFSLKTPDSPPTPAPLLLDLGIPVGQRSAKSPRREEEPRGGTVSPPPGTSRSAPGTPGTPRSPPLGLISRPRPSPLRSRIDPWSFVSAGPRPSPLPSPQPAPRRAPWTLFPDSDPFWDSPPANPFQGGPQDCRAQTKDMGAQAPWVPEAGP
ACVR2B, sequence (Q13705 whole entry): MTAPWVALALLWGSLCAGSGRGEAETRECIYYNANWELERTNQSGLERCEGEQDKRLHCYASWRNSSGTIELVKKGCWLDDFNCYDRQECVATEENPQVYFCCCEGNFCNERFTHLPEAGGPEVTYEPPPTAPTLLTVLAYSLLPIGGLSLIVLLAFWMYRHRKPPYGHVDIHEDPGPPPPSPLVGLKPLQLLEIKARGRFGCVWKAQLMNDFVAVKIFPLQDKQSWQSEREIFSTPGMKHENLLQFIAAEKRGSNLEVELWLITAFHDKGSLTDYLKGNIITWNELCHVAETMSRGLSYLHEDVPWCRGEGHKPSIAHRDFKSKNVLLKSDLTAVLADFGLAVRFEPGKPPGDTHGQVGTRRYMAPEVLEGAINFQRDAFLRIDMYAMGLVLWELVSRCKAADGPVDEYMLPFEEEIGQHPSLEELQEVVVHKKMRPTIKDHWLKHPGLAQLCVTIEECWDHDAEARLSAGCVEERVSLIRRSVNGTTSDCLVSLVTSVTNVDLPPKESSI
STK17B, sequence (O94768 whole entry): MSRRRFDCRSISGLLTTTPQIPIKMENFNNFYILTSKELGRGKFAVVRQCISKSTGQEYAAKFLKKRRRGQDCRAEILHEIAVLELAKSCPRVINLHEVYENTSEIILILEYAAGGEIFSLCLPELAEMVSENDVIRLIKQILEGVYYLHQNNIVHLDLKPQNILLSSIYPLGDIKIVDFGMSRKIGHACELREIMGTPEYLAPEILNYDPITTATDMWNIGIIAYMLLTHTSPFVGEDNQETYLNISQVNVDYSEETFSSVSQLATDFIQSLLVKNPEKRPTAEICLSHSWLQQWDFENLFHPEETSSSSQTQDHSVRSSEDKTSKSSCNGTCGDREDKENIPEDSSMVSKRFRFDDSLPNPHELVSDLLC
BMPR1A, sequence (P36894 whole entry): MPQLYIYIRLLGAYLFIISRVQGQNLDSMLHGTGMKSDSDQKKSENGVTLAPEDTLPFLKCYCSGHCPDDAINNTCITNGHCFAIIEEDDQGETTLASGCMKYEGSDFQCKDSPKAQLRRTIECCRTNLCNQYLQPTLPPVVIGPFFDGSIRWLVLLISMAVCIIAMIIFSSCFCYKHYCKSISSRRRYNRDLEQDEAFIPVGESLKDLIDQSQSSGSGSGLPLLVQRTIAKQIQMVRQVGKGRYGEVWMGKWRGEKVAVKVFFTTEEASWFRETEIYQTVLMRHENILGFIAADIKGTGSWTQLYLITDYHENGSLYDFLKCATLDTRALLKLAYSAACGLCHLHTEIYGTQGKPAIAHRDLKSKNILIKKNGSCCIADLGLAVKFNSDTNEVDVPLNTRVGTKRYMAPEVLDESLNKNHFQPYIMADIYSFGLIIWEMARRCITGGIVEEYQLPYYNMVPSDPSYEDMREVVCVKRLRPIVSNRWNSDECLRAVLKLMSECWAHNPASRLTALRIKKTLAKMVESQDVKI
MAPK6, sequence (Q16659 whole entry): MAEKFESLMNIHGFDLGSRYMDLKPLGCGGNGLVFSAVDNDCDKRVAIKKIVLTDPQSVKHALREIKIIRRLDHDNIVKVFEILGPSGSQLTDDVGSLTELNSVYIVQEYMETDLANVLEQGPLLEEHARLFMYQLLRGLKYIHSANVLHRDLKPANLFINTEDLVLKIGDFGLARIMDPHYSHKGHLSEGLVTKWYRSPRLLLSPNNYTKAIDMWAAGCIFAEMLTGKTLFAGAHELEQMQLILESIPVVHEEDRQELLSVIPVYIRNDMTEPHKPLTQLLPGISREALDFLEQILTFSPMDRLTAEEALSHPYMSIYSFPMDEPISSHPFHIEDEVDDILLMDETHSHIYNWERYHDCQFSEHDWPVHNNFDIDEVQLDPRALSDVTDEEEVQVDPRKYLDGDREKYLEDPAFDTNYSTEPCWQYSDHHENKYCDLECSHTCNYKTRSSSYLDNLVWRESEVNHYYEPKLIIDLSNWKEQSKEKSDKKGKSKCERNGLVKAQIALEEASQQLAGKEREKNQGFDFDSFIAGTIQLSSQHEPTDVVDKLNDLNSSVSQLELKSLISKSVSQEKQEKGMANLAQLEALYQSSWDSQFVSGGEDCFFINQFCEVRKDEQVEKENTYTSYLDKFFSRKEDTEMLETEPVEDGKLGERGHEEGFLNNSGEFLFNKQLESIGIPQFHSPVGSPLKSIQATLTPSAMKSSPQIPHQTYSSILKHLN

SMILES	pIC50 [1]	pIC50 [2]	pIC50 [3]	pIC50 [4]	pIC50 [5]	pIC50 [6]	pIC50 [7]	pIC50 [8]	pIC50 [9]	pIC50 [10]	pIC50 [11]	pIC50 [12]	pIC50 [13]	pIC50 [14]
CN1CCN(c2ccc(Nc3ncc(C#N)c(Nc4ccccc4C(N)=O)n3)cc2)CC1.Cl [TCMDC-134116]	6.80 and 6.85	7.42 and 7.31	6.72 and 6.66	6.80	7.05	< 4.70	–	–	–	–	–	–	–	–
Cl.NCC1(c2nc(-c3ccc(Cl)c(O)c3)c(-c3ccncc3)[nH]2)CCCCC1 [TCMDC-141154]	< 4.70	–	< 4.70	< 4.70	–	–	< 4.70	< 4.70	< 4.70	< 4.70	< 4.70	< 4.70	< 4.70	< 4.70
CN(C)CC(O)COc1ccc(Nc2ncc([N+](=O)[O-])c(Nc3ccccc3O)n2)cc1.O=C(O)C(F)(F)F (stereo not shown) [TCMDC-141399]	–	5.15 and 5.11	–	–	5.85 and 6.20	< 4.70	< 4.70	6.49	4.92 and 5.12	< 4.70	< 4.70	6.49	< 4.70	< 4.70
